l = locked nucleic acid (LNA); d = 2'-deoxy (DNA)
Experiments:
[1] = test system: hCD39 mRNA; test: hCD39 mRNA knockdown efficacy screen in A-172 cells (single dose, gymnotic delivery, QuantiGene Singleplex); assay type: cell-based, human; conditions: 10 μM; for Mean hCD39 mRNA expression (relative to untreated cells set as 1): first screening round; for Mean hCD39 mRNA expression (relative to untreated cells set as 1) / Relative hCD39 mRNA expression (compared to non-treated cells): normalized to HPRT1; for Relative hCD39 mRNA expression (compared to non-treated cells): second screening round
In short: (§1)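 Antisense oligonucleotides given once at 10 μM without transfection reagent (gymnotic) to HDLM-2 or A-172 cells for 3 days. hCD39 mRNA measured by QuantiGene Singleplex, normalized to HPRT1 and expressed relative to untreated cells; triplicate means.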

[2] = test system: hCD39 protein; test: Concentration- and time-dependent hCD39 protein knockdown in HDLM-2 cells (flow cytometry); assay type: cell-based, human; conditions: for Inhibition [%] (Protein/mRNA): HDLM-2, CD39 protein; for inhibition of hCD39 protein: HDLM-2 cells, three, four and six days, different concentrations
Description: FIG. 8 depicts concentration- and time-dependent CD39 protein knockdown by A04040H (SEQ ID No. 3) and A04045H (SEQ ID No. 4). Analysis of CD39 protein expression by flow cytometry in HDML-2 cells is given after treatment with the indicated antisense oligonucleotides for 3, 4 and 6 days. As treatment control, cells were treated with neg1 for 3, 4 and 6 days at the indicated concentrations. Relative expression compared to untreated control cells (=1) is depicted.
HDLM-2 cells were therefore treated with different concentrations of the respective antisense oligonucleotide for three, four and six days, respectively. Protein expression was analyzed by flow cytometry using the CD39 antibody (clone A1) and 7-AAD to investigate viability. […] Table 13summarizes protein knockdown efficiency of the selected human CD39 antisense oligonucleotides A04040H (SEQ ID No. 3) and A04045H (SEQ ID No. 4) in HDLM-2 cells at different time points: […]

[3] = test system: hCD39; test: ATP degradation in primary human CD8+ T cells after hCD39 knockdown (ATP Bioluminescence Assay); assay type: cell-based; conditions: for Relative ATP levels in supernatants of CD8+ T cells 30 minutes after addition of ATP: 5 μM oligonucleotide 6 days, medium = 1
Description: FIG. 11A-11D show knockdown of hCD39 protein (FIG. 11A) and viability (FIG. 11B) of primary human CD8^+ T cells, isolated from peripheral blood using MACS. CD8^+ T cells were activated by plate-bound anti-human CD3 (OKT-3). Activated cells were treated with RPMI-1640 medium, medium supplemented with A04040H (SEQ ID No. 3), and medium supplemented with neg1 at 5 μM, respectively, for 6 days in total. After 3 days, medium was replaced with fresh medium containing 5 μM of A04040H (SEQ ID No. 3) and neg 1, respectively, and hCD39 protein knockdown efficacy (FIG. 11A) and viability (FIG. 11B) were analyzed on day 6 by flow cytometry. Residual hCD39 expression and viability (median of 7-AAD positive cells) is depicted compared to untreated cells (FIG. 11A-11B). The same day, cells were harvested, washed and re-plated at a constant cell number (150.000 cells/Well in a 96-Well plate) in triplicates. Then, 2 μM (FIG. 11C) or 20 μM (FIG. 11D) of ATP was added to cells or cell culture medium without cells and ATP concentration of cell supernatants or cell culture medium was determined after 30 min using the ATP Bioluminescence Assay Kit (Roche).
Additionally, the effect of hCD39 knockdown on ATP degradation was also analyzed in primary human CD8^+ T cells (FIG. 11A-11D). Activated T cells were treated with 5 μM antisense oligonucleotide A04040H (SEQ ID No. 3) or the negative control oligonucleotide neg1 for 6 days (3+3). After 3 days, RPMI-1640 medium was replaced with fresh RPMI-1640 medium containing […] of antisense oligonucleotide. Protein knockdown efficacy (FIG. 11A) and viability (FIG. 11B) were analyzed after 6 days by flow cytometry. […] On day 6, cells were re-plated at a constant cell number and ATP was added at concentrations of 2 μM (FIG. 11C) or 20 μM (FIG. 11D). ATP concentration was measured in the cell supernatants or in cell culture medium after 30 min (Table 15).

[4] = test system: hCD39 mRNA; test: hCD39 mRNA knockdown efficacy screen in HDLM-2 cells (single dose, gymnotic delivery, QuantiGene Singleplex); assay type: cell-based, human; conditions: 10 μM; for Mean hCD39 mRNA expression normalized to HPRT1 relative to untreated control = 1: first screening round; for Relative hCD39 mRNA expression (compared to non-treated cells): second screening round, normalized to HPRT1
In short: as §1

## +G*+T*+T*T*G*T*G*T*G*A*G*A*G*C*+T*+T (antisense GTTTGTGTGAGAGCTT; sugars from the 5' end l3 d11 l2, all phosphorothioate, methylation of C not given here) [A04040H]
[1]; 3 days
  Mean hCD39 mRNA expression (relative to untreated cells set as 1): 0.07
  Relative hCD39 mRNA expression (compared to non-treated cells): 0.04
[1]; 3 days, third screening round
  Residual hCD39 mRNA expression relative to untreated cells (set as 1): 0.05
[2]; Day 3, 0.1 μM
  Inhibition [%] (Protein/mRNA): 46.73%
[2]; Day 3, 0.5 μM
  Inhibition [%] (Protein/mRNA): 54.75%
[2]; Day 3, 1 μM
  Inhibition [%] (Protein/mRNA): 60.56%
[2]; Day 3, 10 μM
  Inhibition [%] (Protein/mRNA): 61.36%
[2]; Day 4, 0.1 μM
  Inhibition [%] (Protein/mRNA): 70.73%
[2]; Day 4, 0.5 μM
  Inhibition [%] (Protein/mRNA): 78.25%
[2]; Day 4, 1 μM
  Inhibition [%] (Protein/mRNA): 76.96%
[2]; Day 4, 10 μM
  Inhibition [%] (Protein/mRNA): 79.11%
[2]; Day 6, 0.1 μM
  Inhibition [%] (Protein/mRNA): 87.37%
[2]; Day 6, 0.5 μM
  Inhibition [%] (Protein/mRNA): 89.36%
[2]; Day 6, 1 μM
  Inhibition [%] (Protein/mRNA): 84.12%
[2]; Day 6, 10 μM
  Inhibition [%] (Protein/mRNA): 88.84%
[2]
  inhibition of hCD39 protein: potent inhibition of hCD39 protein after all indicated time points
[3]; Added ATP (2 μmol/1)
  Relative ATP levels in supernatants of CD8+ T cells 30 minutes after addition of ATP: 0.59
[3]; Added ATP (20 μmol/1)
  Relative ATP levels in supernatants of CD8+ T cells 30 minutes after addition of ATP: 0.89
[3]; primary human CD8+ T cells, 5 μM, 6 days
  ATP concentration compared to neg 1 treated cells: about 7 ×
[3]; primary human CD8+ T cells, 5 μM, 6 days, 2 or 20 μM ATP, 30 min
  ATP degradation efficacy: nearly abolished
[4]; 3 days
  Mean hCD39 mRNA expression normalized to HPRT1 relative to untreated control = 1: 0.08
  Relative hCD39 mRNA expression (compared to non-treated cells): 0.06
[4]; 3 days, third screening round
  Residual hCD39 mRNA expression relative to untreated cells (set as 1): 0.01

## +C*+G*+T*T*T*A*G*G*C*T*A*T*G*T*A*+C*+T*+T (CGTTTAGGCTATGTACTT; chemistry not fully specified) [neg1, negative control antisense oligonucleotide not hybridizing with CD39, described in WO2014154843 A1, reference compound]
[1]
  influence on the expression of hCD39: no negative influence on the expression of hCD39
[1]; 3 days
  Mean hCD39 mRNA expression (relative to untreated cells set as 1): 1.36
  Relative hCD39 mRNA expression (compared to non-treated cells): 0.79
[2]
  inhibition of hCD39 protein: no inhibitory effect
[3]; Added ATP (2 μmol/1)
  Relative ATP levels in supernatants of CD8+ T cells 30 minutes after addition of ATP: 0
[3]; Added ATP (20 μmol/1)
  Relative ATP levels in supernatants of CD8+ T cells 30 minutes after addition of ATP: 0.12
[4]
  influence on the expression of hCD39: no negative influence on the expression of hCD39
[4]; 3 days
  Mean hCD39 mRNA expression normalized to HPRT1 relative to untreated control = 1: 1.09
  Relative hCD39 mRNA expression (compared to non-treated cells): 1.09

Source: patent US11959083B2, “Immunosuppression-reverting oligonucleotides inhibiting the expression of CD39” (Secarna Pharmaceuticals GmbH & Co. KG, priority 2016, dated 2024)
